Earlier results, collected in US6733793B2, “Oral composition with insulin-like activities and methods of use” (MetaProteomics, LLC, priority 2002, dated 2004).

Experiments:
[1] = rats, inhaled
[2] = test system: bovine papilloma virus DNA-tranfected C3H/10T1/2 cells; details: in vitro, bovine papilloma virus DNA-transfected C3H/10T1/2 cells
[3] = test system: fruit fly

O=S(=O)([O-])[O-].[O]=[V+2] [Vanadyl sulfate]
Pulmonary inflammation [1]: induce pulmonary inflammation
Tumor promotion activity [2]: possess tumor promotion activity
Chromosomal damage and mitotic recombination [3]: induce chromosomal damage and mitotic recombination
